pKd: −log10 of the molar value. Where two headings read alike, the source gives them in different places.
What was measured:
Test in all cases: ITC
Assay type in all cases: binding
PaKPR2 [1] = target: T1, PaKPR2 (Pseudomonas aeruginosa, UniProt A0A0H2Z9K5)
T1 sequence (A0A0H2Z9K5 1-315): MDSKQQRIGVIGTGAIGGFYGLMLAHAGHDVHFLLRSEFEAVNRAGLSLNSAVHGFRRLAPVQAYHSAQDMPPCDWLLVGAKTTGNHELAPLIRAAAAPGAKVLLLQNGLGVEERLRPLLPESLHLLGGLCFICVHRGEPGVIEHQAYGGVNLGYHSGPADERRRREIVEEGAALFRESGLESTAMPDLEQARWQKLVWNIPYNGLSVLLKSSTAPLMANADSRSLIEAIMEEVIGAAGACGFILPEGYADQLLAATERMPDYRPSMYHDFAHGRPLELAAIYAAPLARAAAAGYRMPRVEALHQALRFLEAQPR

PaKPR2 [2] = target: T1, PaKPR2; remark: listed apart in the source
PaKPR2 [3] = target: T1, PaKPR2; remark: listed apart in the source

pKd (PaKPR2 [1]) | Structure (SMILES) | other results
5.04 | O=C(O)C(=O)CCc1ccccc1 [2-oxo-4-phenylbutanoic acid] | –
5.87 | O=C(O)C(=O)c1cccs1 | –
– | CC[C@H](C)C(=O)C(=O)O [3methyl 2 ketopentanoate] | pKd (PaKPR2 [2]): 4.95
– | NC(=O)C1=CN([C@@H]2O[C@H](COP(=O)(O)OP(=O)(O)OC[C@H]3O[C@@H](n4cnc5c(N)ncnc54)[C@H](OP(=O)(O)O)[C@@H]3O)[C@@H](O)[C@H]2O)C=CC1 [NADPH] | pKd (PaKPR2 [2]): 5.11
6.41 | O=C(O)C(=O)c1ccco1 [2-Furyl glyoxylate] | –
5.45 | O=C(O)C(=O)c1ccccc1 [Phenyl glyoxylate] | –
– | CC(C)CC(=O)C(=O)O [2-ketoisocaproate] | pKd (PaKPR2 [3]): 5.52
4.01 | NC(=O)C1=CN([C@@H]2O[C@H](COP(=O)(O)OP(=O)(O)OC[C@H]3O[C@@H](n4cnc5c(N)ncnc54)[C@H](O)[C@@H]3O)[C@@H](O)[C@H]2O)C=CC1 [NADH] | –

— paper doi:10.1101/2024.01.05.573888v1 (biorxiv, 2024)
